Measurements from US20090270381A1, “Non-steroidal progesterone receptor modulators” (priority 2007, published 2009).

Target: T1, PR-A (Homo sapiens, UniProt P06401)
T1 construct: expressed in transfected cells
T1 sequence (P06401 1-769 isoform P06401-2): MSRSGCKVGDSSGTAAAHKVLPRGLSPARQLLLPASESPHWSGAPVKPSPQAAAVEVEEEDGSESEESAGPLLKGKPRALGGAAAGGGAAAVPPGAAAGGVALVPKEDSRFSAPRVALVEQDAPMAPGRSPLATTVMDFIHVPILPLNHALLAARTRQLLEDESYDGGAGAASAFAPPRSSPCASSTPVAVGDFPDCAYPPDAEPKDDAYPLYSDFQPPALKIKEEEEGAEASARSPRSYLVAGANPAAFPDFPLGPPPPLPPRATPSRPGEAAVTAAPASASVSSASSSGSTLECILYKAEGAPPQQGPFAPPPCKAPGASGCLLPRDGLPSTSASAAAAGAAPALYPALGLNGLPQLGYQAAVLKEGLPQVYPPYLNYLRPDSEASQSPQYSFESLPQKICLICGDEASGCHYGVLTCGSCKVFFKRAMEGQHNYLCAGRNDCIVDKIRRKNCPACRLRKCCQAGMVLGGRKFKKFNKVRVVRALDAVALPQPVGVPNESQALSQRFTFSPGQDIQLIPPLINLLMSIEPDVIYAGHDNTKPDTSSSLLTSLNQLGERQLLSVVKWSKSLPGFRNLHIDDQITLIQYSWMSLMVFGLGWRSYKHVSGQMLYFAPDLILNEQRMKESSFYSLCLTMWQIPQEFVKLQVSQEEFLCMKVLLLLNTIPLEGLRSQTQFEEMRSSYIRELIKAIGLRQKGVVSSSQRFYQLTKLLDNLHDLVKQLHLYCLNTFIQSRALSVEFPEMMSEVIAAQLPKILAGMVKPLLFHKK
Assay: Transactivation test on antagonistic activity at PR-A
Format: cell-based
Settings: for IC50: antagonism at PR-A; for Emax: read-out: Efficacy (antagonism at PR-A) [%]
Protocol: The transactivation assay is carried out as described in WO 02/054064.

| Structure (SMILES) | IC50 [nM] | Emax [%] |
| --- | --- | --- |
| CNC(=O)c1cccc(-c2cccc(CC(O)(C(=O)Nc3ccc(C#N)c(C(F)(F)F)c3)C3CCN(S(=O)(=O)c4cccc(F)c4)CC3)c2)c1 (stereo not drawn) [Example 169, N-Methyl-3′-{2-(4-cyano-3-trifluoro-methylphenylcarbamoyl)-2-[1-(3-fluoro-benzenesulfonyl)-piperidin-4-yl]-2-hydroxyethyl}biphenyl-3-carboxamide] | 1.7 | 103 |
| N#Cc1ccc(NC(=O)C(O)(Cc2ccccc2)C2CCN(C(=O)c3ccccc3)CC2)cc1C(F)(F)F (single isomer, unassigned) [Example 101a, 2-(1-Benzoylpiperidin-4-yl)-N-(4-cyano-3-trifluoromethylphenyl)-2-hydroxy-3-phenylpropionamide] | 14.7 | 103 |
| CNS(=O)(=O)c1ccc(-c2cccc(C[C@](O)(C(=O)Nc3ccc(C#N)c(C(F)(F)F)c3)C3CCCCC3)c2)cc1 (stereo in doubt) [Example 63, N-(4-Cyano-3-trifluoromethylphenyl)-2-cyclohexyl-2-hydroxy-3-(4′-methyl-sulfamoylbiphenyl-3-yl)propionamide] | 26.3 | 104 |
| Cn1c(C#N)ccc1NC(=O)C(O)(Cc1ccccc1)C1CCCCC1 (stereo not drawn) [Example 97, N-(5-Cyano-1-methyl-1H-pyrrol-2-yl)-2-cyclohexyl-2-hydroxy-3-phenyl-propionamide] | 55.6 | 105 |
| CS(=O)(=O)N1CCC(C(O)(Cc2ccccc2)C(=O)Nc2ccc(C#N)c(C(F)(F)F)c2)CC1 (single isomer, unassigned) [Example 103, N-(4-Cyano-3-trifluoromethylphenyl)-2-hydroxy-2-(1-methanesulfonyl-piperidin-4-yl)-3-phenylpropionamide] | 48.8 | 98.5 |
| N#Cc1ccc(NC(=O)C(O)(Cc2cccc(-c3ccc(C(=O)CO)cc3)c2)C2CCCCC2)cc1C(F)(F)F (stereo not drawn) [Example 78, N-(4-Cyano-3-trifluoromethylphenyl)-2-cyclohexyl-2-hydroxy-3-[4′-(2-hydroxy-acetyl)biphenyl-3-yl]propionamide] | 55.7 | 101 |
| N#Cc1ccc(NC(=O)C(O)(Cc2cccc(-c3ccsc3)c2)C2CCCCC2)cc1C(F)(F)F (stereo not drawn) [Example 59, N-(4-Cyano-3-trifluoromethylphenyl)-2-cyclohexyl-2-hydroxy-3-(3-thiophen-3-ylphenyl)propionamide] | 46.8 | 103 |
| N#Cc1ccc(NC(=O)C(O)(Cc2cccc(O)c2)C2CCCCC2)cc1C(F)(F)F (single isomer, unassigned) [Example 200b, N-(4-Cyano-3-trifluoromethylphenyl)-2-cyclohexyl-2-hydroxy-3-(3-hydroxy-phenyl)propionamide] | 5.66 | 98.5 |
| CC(=O)Nc1cccc(-c2cccc(CC(O)(C(=O)Nc3ccc(C#N)c(C(F)(F)F)c3)C3CCCCC3)c2)c1 (stereo not drawn) [Example 71, 3-(3′-Acetylaminobiphenyl-3-yl)-N-(4-cyano-3-trifluoromethylphenyl)-2-cyclohexyl-2-hydroxypropionamide] | 17.3 | 100 |
| N#Cc1ccc(NC(=O)C(O)(Cc2ccccc2)C2CCN(S(=O)(=O)c3cccc(Cl)c3)CC2)cc1C(F)(F)F (single isomer, unassigned) [Example 111, 2-[1-(3-Chlorobenzenesulfonyl)-piperidin-4-yl]-N-(4-cyano-3-trifluoro-methylphenyl)-2-hydroxy-3-phenyl-propionamide] | 4.17 | 103 |
| N#Cc1ccc(NC(=O)C(O)(Cc2cccc(-c3cccc(C(=O)N4CCOCC4)c3)c2)C2CCN(C(=O)c3ccccc3)CC2)cc1C(F)(F)F (stereo not drawn) [Example 162, 2-(1-Benzoylpiperidin-4-yl)-N-(4-cyano-3-trifluoromethylphenyl)-2-hydroxy-3-[3′-(morpholine-4-carbonyl)-biphenyl-3-yl]propionamide] | 44.1 | 99 |
| CNC(=O)c1cccc(-c2cccc(CC(O)(C(=O)Nc3ccc(C#N)c(C(F)(F)F)c3)C3CCCCC3)c2)c1 (stereo not drawn) [Example 68, N-Methyl-3′-[2-(4-cyano-3-trifluoro-methylphenylcarbamoyl)-2-cyclohexyl-2-hydroxyethyl]biphenyl-3-carboxamide] | 5.13 | 102 |
| CNC(=O)c1cccc(-c2cccc(CC(O)(C(=O)Nc3ccc(C#N)c(C(F)(F)F)c3)C3CCN(C(=O)c4ccccc4)CC3)c2)c1 (single isomer, unassigned) [Example 159, N-Methyl-3′-[2-(1-benzoylpiperidin-4-yl)-2-(4-cyano-3-trifluoromethylphenyl-carbamoyl)-2-hydroxyethyl]biphenyl-3-carboxamide] | 15.9 | 96.2 |
| N#Cc1ccc(NC(=O)C(O)(Cc2ccccc2)C2CCN(C(=O)c3ccno3)CC2)cc1C(F)(F)F (single isomer, unassigned) [Example 113, N-(4-Cyano-3-trifluoromethylphenyl)-2-hydroxy-2-[1-(isoxazole-5-carbonyl)piperidin-4-yl]-3-phenyl-propionamide] | 21.7 | 97.9 |
| N#Cc1ccc(NC(=O)C(O)(Cc2ccccc2)C2CCN(C(=O)C3CC3)CC2)cc1C(F)(F)F (single isomer, unassigned) [Example 108, N-(4-Cyano-3-trifluoromethylphenyl)-2-(1-cyclopropanecarbonylpiperidin-4-yl)-2-hydroxy-3-phenylpropion amide] | 36.1 | 96 |
| CS(=O)(=O)N1CCN(Cc2cccc(CC(O)(C(=O)Nc3ccc(C#N)c(C(F)(F)F)c3)C3CCCCC3)c2)CC1 (stereo not drawn) [Example 84, N-(4-Cyano-3-trifluoromethylphenyl)-2-cyclohexyl-2-hydroxy-3-[3-(4-methane-sulfonylpiperazin-1-ylmethyl)phenyl]-propionamide] | 51.2 | 102 |
| N#Cc1ccc(NC(=O)C(O)(Cc2cccc(-c3cccc(C(N)=O)c3)c2)C2CCN(S(=O)(=O)c3ccc(F)cc3)CC2)cc1C(F)(F)F (single isomer, unassigned) [Example 172, 3′-{2-(4-Cyano-3-trifluoromethyl-phenylcarbamoyl)-2-[1-(4-fluoro-benzenesulfonyl)piperidin-4-yl]-2-hydroxyethyl}biphenyl-3-carboxamide] | 1.2 | 101 |
| CC(=O)c1ccc(-c2ccccc2CC(O)(C(=O)Nc2ccc(C#N)c(Cl)c2)C2CCCCC2)cc1 (single isomer, unassigned) [Example 19a, rac-3-(4′-Acetylbiphenyl-2-yl)-N-(3-chloro-4-cyanophenyl)-2-cyclohexyl-2-hydroxy-propionamide] | 6.26 | 108 |
